Assay results as given in ChEMBL document CHEMBL4421736, “INHIBITORS OF SARM1 NADase ACTIVITY AND USES THEREOF” (2018).
Active and inactive are the calls of the source. The calls are words filed in the database; no cut-off is given here.

Experiments:
Assay type in all cases: cell-based
[1] = biological target: T1, NAD(+) hydrolase SARM1 (Homo sapiens) (UniProt Q6SZW1); test: Inhibition of StrepTag-tagged human SARM1 TIR (561 to 724 residues) expressed in NRK1-HEK293T cells assessed as reduction in NADase activity by measuring NAD consumption at 150 uM pre-incubated up to 120 mins before NAD+ addition and further incubated for 60 mins by HPLC analysis relative to control; design: scale not given: the % may be the effect or the level left
T1 sequence (whole entry): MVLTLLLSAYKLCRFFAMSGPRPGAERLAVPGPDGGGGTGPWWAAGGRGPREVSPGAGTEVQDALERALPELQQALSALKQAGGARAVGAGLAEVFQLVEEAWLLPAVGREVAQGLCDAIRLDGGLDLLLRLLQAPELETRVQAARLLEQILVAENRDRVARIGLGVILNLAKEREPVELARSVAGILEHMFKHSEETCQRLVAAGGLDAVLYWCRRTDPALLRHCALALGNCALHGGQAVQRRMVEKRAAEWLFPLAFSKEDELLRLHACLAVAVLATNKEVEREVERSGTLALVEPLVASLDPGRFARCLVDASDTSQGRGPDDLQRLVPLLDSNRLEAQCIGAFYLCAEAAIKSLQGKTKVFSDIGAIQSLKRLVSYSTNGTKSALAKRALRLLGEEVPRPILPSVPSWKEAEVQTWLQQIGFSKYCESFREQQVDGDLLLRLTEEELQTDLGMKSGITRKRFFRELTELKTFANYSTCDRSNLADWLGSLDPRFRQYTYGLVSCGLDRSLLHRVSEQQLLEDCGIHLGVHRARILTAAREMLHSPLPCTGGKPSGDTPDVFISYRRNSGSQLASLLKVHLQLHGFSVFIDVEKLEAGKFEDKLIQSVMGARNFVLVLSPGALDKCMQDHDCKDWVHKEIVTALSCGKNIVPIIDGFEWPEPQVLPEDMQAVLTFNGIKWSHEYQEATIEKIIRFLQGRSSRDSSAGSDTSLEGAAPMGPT

[2] = biological target: T1, NAD(+) hydrolase SARM1 (Homo sapiens); test: Inhibition of StrepTag-tagged human SARM1 TIR (561 to 724 residues) expressed in NRK1-HEK293T cells assessed as reduction in NADase activity by measuring ADPR production at 150 uM pre-incubated up to 120 mins before NAD+ addition and further incubated for 60 mins by HPLC analysis; design: scale not given: the % may be the effect or the level left
[3] = biological target: T2, NAD(+) hydrolase SARM1 (Mus musculus) (UniProt Q6PDS3); test: Inhibition of SARM1 in CD1 mouse DRG cells assessed as inhibition of axon degeneration by measuring reduction in NAD+ consumption rate at 5 uM added 30 mins prior to D4-Nam addition and measured 4 hrs post D4-Nam addition by LC-MS/MS analysis
T2 sequence (whole entry): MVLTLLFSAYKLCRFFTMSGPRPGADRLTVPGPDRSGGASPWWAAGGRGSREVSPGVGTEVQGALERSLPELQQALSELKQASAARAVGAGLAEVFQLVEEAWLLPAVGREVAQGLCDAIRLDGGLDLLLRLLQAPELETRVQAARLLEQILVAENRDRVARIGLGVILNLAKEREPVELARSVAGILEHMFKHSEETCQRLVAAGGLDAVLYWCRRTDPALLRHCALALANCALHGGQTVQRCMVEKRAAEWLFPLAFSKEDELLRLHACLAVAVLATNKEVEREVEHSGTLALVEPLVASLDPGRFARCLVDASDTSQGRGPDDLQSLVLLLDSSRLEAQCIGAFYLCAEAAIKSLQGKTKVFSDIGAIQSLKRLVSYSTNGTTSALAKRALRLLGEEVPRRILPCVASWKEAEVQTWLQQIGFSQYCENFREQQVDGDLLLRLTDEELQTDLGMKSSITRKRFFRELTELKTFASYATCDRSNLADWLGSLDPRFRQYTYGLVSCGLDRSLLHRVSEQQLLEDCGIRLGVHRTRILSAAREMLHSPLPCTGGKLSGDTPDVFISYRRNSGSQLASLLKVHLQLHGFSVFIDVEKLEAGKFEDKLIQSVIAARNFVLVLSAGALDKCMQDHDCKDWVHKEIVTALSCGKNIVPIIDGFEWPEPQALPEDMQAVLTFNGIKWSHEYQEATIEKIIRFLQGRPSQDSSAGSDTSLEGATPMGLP

[4] = biological target: T1, NAD(+) hydrolase SARM1 (Homo sapiens); test: Inhibition of StrepTag-tagged human SARM1 TIR (561 to 724 residues) expressed in HEK293T cells assessed as reduction in NADase activity at 5 uM in presence of NAD+ incubated for 60 mins by HPLC analysis
[5] = biological target: T1, NAD(+) hydrolase SARM1 (Homo sapiens); test: Inhibition of StrepTag-tagged human SARM1 TIR (561 to 724 residues) expressed in HEK293T cells assessed as reduction in NADase activity at 5 uM in presence of NAD+ incubated for 60 mins by LC-MS/MS analysis
[6] = biological target: T2, NAD(+) hydrolase SARM1 (Mus musculus); test: Inhibition of SARM1 in CD1 mouse DRG cells assessed as inhibition of axon degeneration measured during 6 to 24 hrs by drop culture assay
[7] = biological target: T2, NAD(+) hydrolase SARM1 (Mus musculus); test: Inhibition of SARM1 in CD1 mouse DRG cells assessed as inhibition of axon degeneration measured during 6 to 24 hrs by SEM micrography
[8] = biological target: T2, NAD(+) hydrolase SARM1 (Mus musculus); test: Inhibition of SARM1 in CD1 mouse DRG cells assessed as inhibition of axon degeneration by measuring reduction in NAD+ consumption rate added 30 mins prior to D4-Nam addition and measured 4 hrs post D4-Nam addition by LC-MS/MS analysis
[9] = biological target: T1, NAD(+) hydrolase SARM1 (Homo sapiens); test: Substrate activity at StrepTag-tagged human SARM1 TIR (561 to 724 residues) expressed in HEK293T cells assessed as increase in NADase activity in presence of NAD+ incubated for 60 mins by HPLC analysis
[10] = biological target: T1, NAD(+) hydrolase SARM1 (Homo sapiens); test: Substrate activity at StrepTag-tagged human SARM1 TIR (561 to 724 residues) expressed in HEK293T cells assessed as increase in NADase activity at 100 uM in presence of NAD+ incubated for 60 mins by HPLC analysis
[11] = biological target: T1, NAD(+) hydrolase SARM1 (Homo sapiens); test: Inhibition of StrepTag-tagged human SARM1 TIR (561 to 724 residues) expressed in HEK293T cells in presence of NAD+ incubated for 60 mins by chemiluminescence based NAD+ Glo assay
[12] = biological target: T1, NAD(+) hydrolase SARM1 (Homo sapiens); test: Inhibition of StrepTag-tagged human SARM1 TIR (561 to 724 residues) expressed in HEK293T cells assessed as reduction in NADase activity at 1 mM in presence of NAD+ incubated for 60 mins by HPLC analysis

`COc1cnc2[nH]c([S+]([O-])Cc3ncc(C)c(OC)c3C)nc2c1` (stereo unspecified) showed an Activity [1] of over 75% and an Activity [2] of 50 to 75%.

`O=C1NC(=O)C(=Cc2ccc3ccccc3c2)C(=O)N1` was tested, and the inhibition [3] was “Active”.

With `COCCCOc1ccnc(C[S+]([O-])c2nc3ccccc3[nH]2)c1C` (stereo unspecified) the inhibition [4] was “Active”.

For `COC(=O)CC1(C(=O)OC)Nc2cc(Cl)c(Cl)cc2S(=O)(=O)N1O` (stereo unspecified), the inhibition [3] was “Active”.

In the case of `Cc1c(OCC(F)(F)F)ccnc1C[S@@+]([O-])c1nc2ccccc2[nH]1`, the inhibition [4] is reported as “Active”.

`CCN(CC)c1ccc(C=C2C(=O)NC(=S)NC2=O)cc1` was tested, and the inhibition [3] was “Active”.

`CN(C)c1n/c(=N/Cc2ccco2)ss1` was tested, and the inhibition [5] was “Active”, the inhibition [6] was “Active” and the inhibition [7] was “Active”. The inhibition [8] was “Dose-dependent effect” and the inhibition [3] was “Active”.

In the case of `NC(=O)C1=CN([C@@H]2O[C@H](COP(=O)(O)OP(=O)(O)OC[C@H]3O[C@@H](n4cnc5c(N)ncnc54)[C@H](OP(=O)(O)O)[C@@H]3O)[C@@H](O)[C@H]2O)C=CC1`, the Activity [9] is reported as “Active” and the Activity [10] is reported as “Active”.

`NC(=O)c1ccccc1` was tested, and the Activity [9] was “inactive”.

For `COc1ccc2c(c1)nc([S+]([O-])Cc1ncc(C)c(OC)c1C)n2C` (stereo unspecified), the Activity [1] was over 75% and the Activity [2] was over 75%.

`CN(C)c1n/c(=N/c2cccc(Cl)c2)ss1` was tested, and the inhibition [5] was “Active”, the inhibition [11] was “Active” and the inhibition [3] was “Active”.

In the case of `O=C(c1ccccc1)C1C(c2ccccc2)C1[N+](=O)[O-]` (stereo unspecified), the inhibition [3] is reported as “Active”.

For `NC(=O)C1=CN([C@@H]2O[C@H](COP(=O)(O)OP(=O)(O)OC[C@H]3O[C@@H](n4cnc5c(=O)[nH]cnc54)[C@H](O)[C@@H]3O)[C@@H](O)[C@H]2O)CC=C1`, the Activity [9] was “Active”.

For `CCOc1ccc(NC(=O)C2CCCN(C)C2)cc1` (stereo unspecified), the inhibition [3] was “Active”.

With `Cc1cccc2c1c1ccc3c(c1n2C)C(=O)C=CC3=O` the inhibition [3] was “Active”.

In the case of `CC1(C)CC[C@]2(C(=O)n3ccnc3)CC[C@]3(C)[C@H](C(=O)C=C4[C@@]5(C)C=C(C#N)C(=O)C(C)(C)[C@@H]5CC[C@]43C)[C@@H]2C1`, the inhibition [3] is reported as “Active”.

For `Cc1ccc([S+]([O-])c2ccc([N+](=O)[O-])c3nonc23)cc1` (stereo unspecified), the inhibition [3] was “Active”.

For `NC(=S)c1cccnc1`, the Activity [9] was “inactive”.

With `COc1ccc2[nH]c([S+]([O-])Cc3ncc(C)c(OC)c3C)nc2n1` (stereo unspecified) the Activity [1] was 50 to 75%, the Activity [2] was under 50% and the inhibition [4] was “Active”.

In the case of `NC(=O)C1CCCc2c1[nH]c1ccc(Cl)cc21` (stereo unspecified), the inhibition [12] is reported as “Active” and the Activity [9] is reported as “inactive”.

`Cc1ccc2c(c1)c1ccc3c(c1n2C)C(=O)C=CC3=O` was tested, and the inhibition [3] was “Active”.

`O=C1NC(=O)C(=Cc2csc3ccccc23)C(=O)N1` was tested, and the inhibition [3] was “Active”.

`Cn1c2ccccc2c2ccc3c(c21)C(=O)C=CC3=O` was tested, and the inhibition [3] was “Active”.

For `Cc1c(OCC(F)(F)F)ccnc1CSc1nc2ccccc2[nH]1`, the Activity [1] was over 75% and the Activity [2] was over 75%.

For `CCOC(=O)/C(C#N)=C1\SS/C(=C(/C#N)C(=O)OCC)S1`, the inhibition [3] was “Active”.

In the case of `COc1ccnc(C[S+]([O-])c2nc3cc(OC(F)F)ccc3[nH]2)c1OC` (stereo unspecified), the inhibition [4] is reported as “Active”.

`O=[N+]([O-])c1ccc(Sc2cccc[n+]2[O-])c2nonc12` was tested, and the inhibition [3] was “Active”.

With `Cc1cc(O)c(-c2cc(O)c(C)cc2O)cc1O` the inhibition [3] was “Active”.

`NC(=O)C1=CN([C@@H]2O[C@H](COP(=O)(O)OP(=O)(O)OC[C@H]3O[C@@H](n4cnc5c4ncn4ccnc54)[C@H](O)[C@@H]3O)[C@@H](O)[C@H]2O)CC=C1` was tested, and the inhibition [12] was “Active” and the Activity [9] was “inactive”.

With `O=Cc1cccnc1` the Activity [9] was “inactive”.

Compound `Cc1cnc(C[S@@+]([O-])c2nc3ccccc3[nH]2)c(C)c1OCC(F)(F)F` has an Activity [1] of over 75% and an Activity [2] of under 50%.

`Oc1cc(CNC2CCCCC2)c(O)cc1CNC1CCCCC1` was tested, and the inhibition [3] was “Active”.

With `COc1ccc2c(c1)c1ccc3c(c1n2C)C(=O)C=CC3=O` the inhibition [3] was “Active”.

`Cc1c(OCC(F)(F)F)ccnc1CS(=O)(=O)c1nc2ccccc2[nH]1` showed an Activity [1] of over 75% and an Activity [2] of over 75%.

For `CC(=O)c1cccnc1`, the Activity [9] was “inactive”.

For `COc1ccc2[nH]c([S+]([O-])Cc3ncc(C)c(OC)c3C)nc2c1` (stereo unspecified), the inhibition [4] was “Active”.

`Cc1c(OCC(F)(F)F)ccnc1C[S+]([O-])c1nc2ccccc2[nH]1` (stereo unspecified) was tested, and the inhibition [4] was “Active”.

For `O=C1N=C(c2ccccc2)C(c2ccccc2)N1` (stereo unspecified), the inhibition [3] was “Active”.

In the case of `NC(=O)c1ccc(N)nc1`, the Activity [9] is reported as “inactive”.

`CC1=C(O)C(=O)C=C2C1=CC=C1[C@@]2(C)CC[C@@]2(C)[C@@H]3C[C@](C)(C(=O)O)CC[C@]3(C)CC[C@]12C` was tested, and the inhibition [3] was “Active”.
